Earlier results as cited in patent US6183121A, “Hepatitis C virus helicase crystals and coordinates that define helicase binding pockets” (priority 1998, dated 2001).

Target: UvrD helicase, mutation of a conserved arginine in motif IV (Escherichia coli, UniProt P03018, R284A)
Details: mutant versus unmutated UvrD; M. C. Hall et al., J. Biol. Chem., 272 (1997)

UvrD helicase, mutation of a conserved arginine in motif IV, sequence (P03018 whole entry R284A): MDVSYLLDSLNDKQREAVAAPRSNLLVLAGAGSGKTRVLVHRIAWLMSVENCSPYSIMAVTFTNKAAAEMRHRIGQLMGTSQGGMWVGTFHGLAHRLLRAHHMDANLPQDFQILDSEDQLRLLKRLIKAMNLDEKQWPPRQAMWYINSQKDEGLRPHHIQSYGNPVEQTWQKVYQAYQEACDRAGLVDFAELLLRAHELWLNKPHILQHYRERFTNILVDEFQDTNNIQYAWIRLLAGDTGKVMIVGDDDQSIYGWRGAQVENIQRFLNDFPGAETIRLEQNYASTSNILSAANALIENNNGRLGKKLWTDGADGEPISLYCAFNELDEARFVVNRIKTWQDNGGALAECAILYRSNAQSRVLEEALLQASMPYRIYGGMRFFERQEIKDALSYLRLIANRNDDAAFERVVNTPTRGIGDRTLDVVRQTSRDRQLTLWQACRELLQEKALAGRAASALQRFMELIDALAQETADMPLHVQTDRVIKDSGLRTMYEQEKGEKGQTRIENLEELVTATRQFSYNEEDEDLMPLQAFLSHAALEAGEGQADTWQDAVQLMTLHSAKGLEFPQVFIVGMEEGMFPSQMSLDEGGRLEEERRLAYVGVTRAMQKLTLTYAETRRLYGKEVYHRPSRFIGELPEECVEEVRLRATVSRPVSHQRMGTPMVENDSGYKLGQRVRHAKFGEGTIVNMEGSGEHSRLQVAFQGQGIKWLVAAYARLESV

Nc1ncnc2c1ncn2[C@@H]1O[C@H](COP(=O)(O)OP(=O)(O)OP(=O)(O)O)[C@@H](O)[C@H]1O [ATP]
increase of the ATP Km: 37 fold
